Assay results as given in patent US20230136569A1, “USE OF NMN TO REDUCE IMMUNODEPRESSION AND IMMUNOSENESCENCE” (NUVAMID SA, priority 2020, published 2023).

What was measured:
[1] = system: B cells present in the spleen; assay: Flow cytometry of B cells in the spleen of old mice; assay type: in vivo; conditions: 500 mg/kg p.o., 6 weeks
Experimental: The administering of β-NMN at 500 mg/kg, of α-NMN at 500 mg/kg and of the vehicle (water) was obtained via oral route (p.o) in the drinking water to young and old mice. The solutions were prepared by dissolving the powder of β-NMN or α-NMN in the vehicle (water). The study comprised 4 groups each having 6 mice: • Group 1: young mice (aged 10 weeks)+drinking water (vehicle) • Groupe 2: old mice (aged 15 months)+drinking water (vehicle) • Group 3: old mice (aged 15 months)+compound I-B (alpha-NMN) in the drinking water • Group 4: old mice (aged 15 months)+compound I-A (beta-NMN) in the drinking water The water consumption of the mice was assessed per cage every other day. The mice were weighed every week. The mice in Group 3 were sacrificed after 4 weeks for organ collection and characterisation of T cell function. The mice in Group 4 were sacrificed after 6 weeks for organ collection and characterisation of T cell function. On the day of sacrifice, the mice were anaesthetised with Vetoflurane (isoflurane) and blood samples were taken from the retroorbital sinus. The blood was incubated for 30 minutes at ambient temperature and then centrifuged at 1300 g for 10 minutes. After sacrificing of the mice, the spleen, thymus, and bone marrow of each animal were removed. The thymus was weighed and measured to evaluate involution thereof. For illustration purposes, photos of the thymus were taken on 5 animals per group. The thymus was divided into two parts: one part was treated with formol for histological examination. The second part was treated for characterisation of the immune cells. For characterisation of the cells, the thymus and spleen were crushed through a sieve of […] over a 50 mL tube with a syringe plunger. The bone marrow was rinsed with RPMI culture medium using a needle and syringe. The cell suspension was then centrifuged at 400 g for 5 minutes at 4° C. Lysis of the red blood cells was also performed before the cell count and use thereof for cytometry. The isolated cells of the spleen, thymus and bone marrow were marked with antibodies in accordance with the following tables to identify the proportion of effector and memory naive T and B cells. The following B cells of the spleen were also examined for characterisation as a function of the combination of proteins on the surface thereof: [table] Measured parameters: The results of flow cytometry are expressed in number or as a proportion of cells per organ. The weight of the thymus is expressed in grams.

[2] = system: CD4+ and CD8+ T cells (splenocytes); assay: Proliferation assay of CFSE-stained splenocytes from treated mice after stimulation; assay type: in vivo; conditions: splenocytes of treated old mice, anti-CD3/CD28 beads 96 h
Experimental: Proliferation assay: At D0+5 weeks, the splenocytes were marked with 2.5 μM CFSE and cultured at a concentration of 0.25×10^6 cells per well in a 96-well plate. The cells were stimulated with 2.5 μg InfluvacTetra® and incubated at 37° C. for 96 hours. The cells were then marked with anti-CD4 and CD8 antibodies and the proliferation of the T CD4+ and CD8+ cells was analysed by flow cytometry. The total splenocytes were stained with Carboxyfluorescein succinimidyl ester (CFSE) and stimulated with beads coated with anti-CD3/CD28 for 96 h. The mean fluorescence intensity of the CFSE was analysed and the ratio before and after stimulation was calculated.

SMILES: NC(=O)c1ccc[n+]([C@@H]2O[C@H](COP(=O)([O-])O)[C@@H](O)[C@H]2O)c1 (stereo in doubt) [I-A, nicotinamide mononucleotide]
- number of activated B cells in the spleen ([1]; compared with the other groups (FIG. 6B)): increase in the number of activated B cells
- number of memory B cells in the spleen ([1]; compared with the other groups (FIG. 6C)): increase
- number of germinal B cells in the spleen ([1]; compared with the other groups (FIG. 6D)): increase
- number of B cells in the spleen ([1]; compared with the other groups of mice (FIG. 6A)): significantly increased
- proliferation of CD4 cells ([2]; compared with the three other groups (FIG. 9A)): significant increase in the proliferation of CD4 and CD8 cells
- proliferation of CD8 cells ([2]; compared with the three other groups (FIG. 9B)): significant increase in the proliferation of CD4 and CD8 cells
